Results: US20100119595A1, “Monounsaturated fatty acids and perhydrocyclopentanophenanthrene nucleus combination molecules, and their precursors, and the use of all of these as weight-loss agents” (priority 2001, published 2010)

Key:
[1] = Dog weight-loss study, 2 hydroxyestrone oleate vs oleoyl-estrone (Example 10); format: in vivo; conditions: oral 21 days, 5, 3.33 or 2.5 micromoles/kg vs OE 10 micromoles/kg
Source text: Dogs are selected and initial measurements taken. The initial measurements include weight and electrical impedance for each dog as measured by a standard impedance measuring device with electrodes placed between the front and rear paws. The dogs are placed individually in appropriate cages and allowed an ad libitum diet of standard dog chow and water for a 10-day period. Daily measurements include the following: • 1. Weight • 2. Weight of food consumed • 3. Water consumed, both volume and weight
Every other day, the dogs' electrical impedance is measured as an indicator of fat tissue content and loss. The dogs remain confined with out of cage activity or exercise for the duration of the experiment. This initial 10-day period establishes a pattern and average of weight gain, impedance change, and food and water consumption for each dog. […] This assures the dogs will readily accept the bread ball as a drug delivery device. […]
An appropriate volume of either OE or 2HOE is placed into the center of a thick piece of dense sweet bread (non-porous), carefully rolled into a small ball so none of the compound leaks out, and sprinkled on the outer surface with sugar or syrup as determined above. […] Electrical impedance of each dog is measured every other day.

[2] = Dog weight-loss study, estrone eicosenoate vs oleoyl-estrone (Example 2); format: in vivo; conditions: oral 21 days, 5, 3.33 or 2.5 micromoles/kg vs OE 10 micromoles/kg
Source text: Dogs are selected and initial measurements taken. The initial measurements include weight and electrical impedance for each dog as measured by a standard impedance measuring device with electrodes placed between the front and rear paws. The dogs are placed individually in appropriate cages and allowed an ad libitum diet of standard dog chow and water for a 10-day period. Daily measurements include the following: • 1. Weight • 2. Weight of food consumed • 3. Water consumed, both volume and weight Every other day, the dogs' electrical impedance is measured as an indicator of fat tissue content and loss. The dogs remain confined with out of cage activity or exercise for the duration of the experiment. This initial 10-day period establishes a pattern and average of weight gain, impedance change, and food and water consumption for each dog. […] This assures the dogs will readily accept the bread ball as a drug delivery device. […] An appropriate volume of either OE or EE is placed into the center of a thick piece of dense sweet bread (non-porous), carefully rolled into a small ball so none of the to compound leaks out, and sprinkled on the outer surface with sugar or syrup as determined above. […] Electrical impedance of each dog is measured every other day.

[3] = Rabbit study at mole/kg dose equivalent to that used for oleoyl-estrone in rats; format: in vivo, rabbits
Source text: The eicosenoic acid-estrogen monoesters mimic the function of the naturally occurring fatty acid monoester, estrone monooleate, as a signal that informs the brain of the size of fat tissue mass. When administered to rabbits, they produce weight reduction of about 20%, by a) decreasing food intake and b) by a new and unexpected mechanism. Eicosenoic acid-estrogen monoesters are useful for the treatment of obesity and/or overweight in mammals, with the advantages of high efficacy and low toxicity.

SMILES | weight loss compared with dogs receiving oleoyl-estrone [1] | weight loss compared with dogs receiving oleoyl-estrone [2] | greater reduction in appetite in rabbits than oleoyl-estrone did in rats [3] [%] | greater weight loss in rabbits than oleoyl-estrone did in rats [3] [%]
CCCCCCCC/C=C\CCCCCCCC(=O)Oc1cc2c(cc1O)[C@H]1CC[C@]3(C)C(=O)CC[C@H]3[C@@H]1CC2 [2HOE, 2 hydroxyestrone oleate] | greater weight loss |  |  | 
CCCCCCCC/C=C\CCCCCCCCCC(=O)Oc1ccc2c(c1)CC[C@@H]1[C@@H]2CC[C@]2(C)C(=O)CC[C@@H]12 [EE, estrone eicosenoate] |  | greater weight loss | 50 | 60
